Structures are written as SMILES.

One may read the AUC(0-t) as the area under the concentration-time curve up to a stated or last time point. Low values mean less exposure, high ones more exposure. By Cmax is commonly meant the highest concentration seen after dosing. As a reminder, the Tmax is the time from dosing to the highest level. One may read the half-life as how long it takes for the measured level to halve.

The target in one series is KRAS G12C-SOS1 (Homo sapiens (Human), UniProt Q07889). The series can be described thus: Inhibition test of compounds on KRAS G12C::SOS1 binding. Conditions: GST-KRAS G12C, His-SOS1. The protocol: The compound to be tested was prepared into a 10 mM stock solution with DMSO, and the compound was serially diluted using 1× test buffer. 0.1 μL of the compound solution with different concentrations was transferred to a 384-well plate. […] 5 μL of His-SOS1 was added to the 384-well plate, centrifuged at 1000 rpm for 1 min, and incubated at room temperature for 15 min.
After incubation, 10 μL of a mixed solution of anti-6his-Tb monoclonal antibody (Cisbio, Cat. No. 61HI2TLA) and anti-GST-XL665 monoclonal antibody (Cisbio, Cat. No. 61GSTXLA) was added to the test well, centrifuged at 1000 rpm for 1 min, and incubated at room temperature for 1 h.
After incubation, the fluorescence signal ratios at 665 nm and 615 nm were read on a multifunctional microplate reader (Perkin Elmer, Envision 2104), and the IC50 values were calculated using Graphpad 5 software.

Series [1] is described as follows: Plasma protein binding by equilibrium dialysis, human plasma. The note with it: 37° C., read-out: Free fraction in plasma, Human (%). It is filed as in vitro ADME. As to the method:
(§1) Plasma protein binding rate of compounds was detected by equilibrium dialysis (HTDialysis, HTD 96b). The compound was prepared into a […] stock solution with DMSO, and then 25-fold diluted with 0.05 M sodium phosphate buffer as a working solution. A blank 96-well plate was taken and preloaded with 380 μL of plasma per well. The plasma was then added with the working solution at 20 μL/well and mixed well, with the compound at a final concentration of 1 μM, containing 0.2% DMSO per well.
(§2) 100 μL of 0.05 M sodium phosphate buffer was added to the reception-side of each dialysis chamber (HTD 96b), and then 100 μL of plasma containing the compound was added to the supply-side. The dialysis chamber was covered with a plastic lid, shaken and incubated at 37° C. for 5 h.
(§3) After incubation, 25 μL of samples were taken from each of the supply-side and the reception-side of the dialysis chamber and placed in the blank 96-well plate. An equal volume of plasma was added to each of the supply-side samples while an equal volume of 0.05 M sodium phosphate buffer was added to each of the reception-side samples and mixed well. The 96-well plate was added with an acetonitrile solution containing internal standard at 200 μL per well, vortexed and shaken at 600 rpm for 10 min, and centrifuged at 5594 g for 15 min (Thermo Multifuge×3R). 50 μL of the supernatant was then transferred to a new 96-well plate, and the samples were mixed with 50 μL of ultra-pure water for LC-MS/MS analysis.
(§4) Plasma protein binding rate and free fraction were calculated using the following formulas: % binding rate=100×([supply-side concentration]5h−[reception-side concentration]5h)/[supply-side concentration]5h. % free fraction=100−% binding rate.

Series [2] can be described thus: Plasma protein binding by equilibrium dialysis, mouse plasma. The class given is in vitro ADME. Conditions: 37° C., read-out: Free fraction in plasma, Mouse (%). The protocol:
as §1, §2, §3, §4
A general note: In equilibrium dialysis free small molecules cross a membrane that holds back macromolecules.

Series [3] has as its system ERK phosphorylation level in DLD-1 cells. The series can be described thus: Inhibition of ERK phosphorylation level in DLD-1 cells (intracellular western blot). It is filed as cell-based. The note with it: Homo sapiens. As to the method:
Intracellular western blot quantitative analysis was used to detect the inhibitory level of compounds on ERK phosphorylation in DLD-1 cells.
DLD-1 cells (ATCC, CCL-221) were seeded in a T75 culture flask at 2.5×10^6 cells/flask and cultured in a RPMI 1640 medium containing 10% FBS for 2 days. On day 3, the cells were seeded on a 384-well plate, and cultured overnight at 37° C., 5% CO2. After overnight culture, the plate was added with serially diluted compounds (the final content of DMSO was 0.5%), the negative group was added with DMSO, and incubated in a 37° C., 5% CO2 incubator.
The cells were fixed, washed once with PBS, treated to disrupt membranes, and blocked at room temperature for 1 h. The blocking solution was removed. The plate was added with primary antibody (CST, Cat. No. #4370S), and incubated overnight at 4° C. The plate was washed 3 times with PBST (PBS solution added with 0.05% Tween-20) and soaked for 2 min each time. The plate was added with secondary antibody (LI-COR, Cat. No. 926-32211) and incubated at room temperature in the dark. The plate was washed 3 times with PBST and soaked for 2 min each time. The plate was centrifuged at 1000 rpm for 1 min, scanned on a two-color infrared laser imaging system (Odyssey® CLX) to read the signal.
Relative signal=800-channel signal values/700-channel signal values.
Relative expression level of ERK phosphorylation=(test compound−control compound I)/(DMSO group−control compound I)
(§5) IC50 values were calculated using Graphpad 5 software.

A further series relates to H358 cells. Description: Inhibition of 3D cell proliferation (3D CellTiter-Glo). The note with it: Homo sapiens, NCI-H358, 168 h, read-out: IC50 (nM), inhibition of 3D proliferation of H358 cells, 7 days. The class given is cell-based. The protocol:
H358 cells were seeded in a T75 culture flask and cultured in a RPMI 1640 medium containing 10% FBS for 2 days for subsequent experiments in which the cells would be cultured or seeded on a 384-well plate.
On day 1, the cells were seeded on the 384-well plate, with 40 μL of medium added per well and serially diluted compounds or DMSO added per well, and an additional well without seeded cells but with medium was set up as a blank control. After culture at 37° C., 5% CO2 for 7 days, the plate was added with 3D CellTiter-Glo reagent (Promega, Cat. No. G9683) on day 8, shaken at 320 rpm for 20 min, and left at room temperature for 2 h. Luminescence signals were read on a multifunctional microplate reader. Cell viability inhibition rate was calculated as:
Cell viability inhibition rate=(DMSO group−test compound)/(DMSO group−blank control group)×100%
as §5

Series [4] can be described thus: Pharmacokinetic test in mice. It is filed as in vivo. Conditions: mouse, plasma; male ICR mice, oral gavage, 10 mg/kg. The protocol: Male ICR mice (20 to 25 g) were used and fasted overnight. Three mice were taken and orally administered by gavage (10 mg/kg). Blood was collected before the administration, and at 15 min, 30 min, 1 h, 2 h, 4 h, 8 h and 24 h after the administration. 6,800 g of the blood samples were centrifuged at 2 to 8° C. for 6 min, and plasma was collected and stored at −80° C. The plasma at each time point was taken and added with an acetonitrile solution containing internal standard in 3 to 5 times the amount, vortexed and mixed for 1 min, and centrifuged at 13,000 rpm/min at 4° C. for 10 min. The supernatant was collected, added with water in 3 times the amount, and mixed. An appropriate amount of the mixture was taken for LC-MS/MS analysis. The main pharmacokinetic parameters were analyzed using WinNonlin 7.0 software with non-compartmental model.

For series [5], the system named is Mia Paca-2 pancreatic cancer. Description: Mia Paca-2 pancreatic cancer in vivo efficacy test. Details: species or system mice. The protocol: (§6) After one week of adaptive feeding of mice, Mia Paca-2 cells in a log phase were resuspended in serum-free DMEM, and then mixed with Matrigel in a ratio of 1:1.1×10^7 Mia Paca-2 cells were inoculated subcutaneously at the right flank at 100 μL per mouse, and tumor growth was observed regularly. When the tumor grew to an average volume of 150 to 200 mm^3, the mice were randomly divided into a model group and an administration group (single drug, in combination with trametinib) based on the tumor size and body weight. The tumor size and body weight were measured and recorded before and during the administration. After the treatment, the tumor size in the model group was compared with that in the administration group to determine the efficacy.

The next series concerns LOVO colorectal cancer. Description: LOVO colorectal cancer in vivo efficacy test. Also on record: species or system mice. Conditions: 25 mg/kg BID. The protocol:
as §6, with “LOVO” for “Mia Paca-2”, “F12K, 5×10^6 LOVO” for “DMEM, and then mixed with Matrigel in a ratio of 1:1.1×10^7 Mia Paca-2”, “group” for “group (single drug, in combination with trametinib)”

Series [6] in a line: Human liver microsome stability test. The class given is in vitro ADME. The note with it: human, human liver microsomes. As to the method:
The human liver microsome stability test was performed by incubating the compound and human liver microsomes in vitro. First, the compound to be tested was prepared into a 10 mM stock solution in DMSO solvent, and then the compound was diluted to 0.5 mM with acetonitrile. Human liver microsomes (Corning) were diluted with PBS into a microsome/buffer solution, and the solution was used to dilute 0.5 mM compound into a working solution, in which the concentration of the compound was 1.5 μM, and the concentration of human liver microsomes was 0.75 mg/mL. A deep-well plate was taken, 30 μL of the working solution was added per well, and then 15 μL of pre-heated 6 mM NADPH solution was added thereto to initiate a reaction, and the reaction was incubated at 37° C. At 0, 5, 15, 30 and 45 min of the incubation, 135 μL of acetonitrile was added to the corresponding wells to terminate the reaction. After the reaction was terminated with acetonitrile at the last time point of 45 min, the deep-well plate was vortexed and vibrated for 10 min (600 rpm/min), and then centrifuged for 15 min. After centrifugation, the supernatant was collected, and added with purified water in a ratio of 1:1 to perform LC-MS/MS detection. A ratio of a peak area of compound to a peak area of internal standard at each time point was obtained, and the peak area ratios of the compound at 5, 15, 30 and 45 min were compared with the peak area ratio at 0 min to calculate the remaining percentage of the compound at each time point. T1/2 was calculated by using GraphPad 5 software.

KRAS G12C-SOS1, sequence (Q07889 whole entry, stated change not applied): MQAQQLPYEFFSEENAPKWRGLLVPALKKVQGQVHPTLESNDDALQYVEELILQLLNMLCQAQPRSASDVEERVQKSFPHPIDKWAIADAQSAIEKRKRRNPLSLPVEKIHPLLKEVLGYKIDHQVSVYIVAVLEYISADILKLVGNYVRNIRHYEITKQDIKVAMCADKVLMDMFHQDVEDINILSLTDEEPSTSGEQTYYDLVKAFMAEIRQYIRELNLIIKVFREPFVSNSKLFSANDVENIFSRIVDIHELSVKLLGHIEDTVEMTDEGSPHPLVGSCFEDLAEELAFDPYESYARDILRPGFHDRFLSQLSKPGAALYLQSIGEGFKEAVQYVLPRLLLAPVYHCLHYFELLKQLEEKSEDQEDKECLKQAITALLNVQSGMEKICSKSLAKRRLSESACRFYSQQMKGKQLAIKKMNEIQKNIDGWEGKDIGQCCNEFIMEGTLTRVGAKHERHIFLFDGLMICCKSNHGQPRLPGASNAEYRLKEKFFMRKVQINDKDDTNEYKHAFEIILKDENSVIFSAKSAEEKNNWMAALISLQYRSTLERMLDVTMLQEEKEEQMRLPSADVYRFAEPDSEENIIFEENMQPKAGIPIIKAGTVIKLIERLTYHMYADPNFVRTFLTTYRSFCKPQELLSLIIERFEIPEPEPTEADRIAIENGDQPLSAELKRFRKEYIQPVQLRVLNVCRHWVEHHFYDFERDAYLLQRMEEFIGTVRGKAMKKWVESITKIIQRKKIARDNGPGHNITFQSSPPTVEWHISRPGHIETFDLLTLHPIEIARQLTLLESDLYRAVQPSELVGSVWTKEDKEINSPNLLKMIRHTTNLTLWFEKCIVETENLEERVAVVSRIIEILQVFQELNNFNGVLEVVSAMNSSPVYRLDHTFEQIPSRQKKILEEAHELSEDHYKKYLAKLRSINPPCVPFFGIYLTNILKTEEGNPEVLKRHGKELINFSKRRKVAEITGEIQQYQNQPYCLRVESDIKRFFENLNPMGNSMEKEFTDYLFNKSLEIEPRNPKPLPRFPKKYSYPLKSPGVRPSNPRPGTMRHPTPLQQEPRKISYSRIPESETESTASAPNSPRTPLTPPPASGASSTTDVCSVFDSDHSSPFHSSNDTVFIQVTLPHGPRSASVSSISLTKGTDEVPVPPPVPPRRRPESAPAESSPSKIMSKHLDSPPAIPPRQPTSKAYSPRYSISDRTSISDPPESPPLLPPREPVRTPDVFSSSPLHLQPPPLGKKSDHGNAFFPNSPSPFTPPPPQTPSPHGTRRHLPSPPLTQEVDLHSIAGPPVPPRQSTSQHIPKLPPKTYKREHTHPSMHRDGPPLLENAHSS

Compound `Cc1nc(N[C@H](C)c2cccc(S(=O)(=O)C(F)F)c2F)c2cn(C3(CF)CC3)c(=O)cc2n1` [Compound I-5, (R)-4-((1-(3-((difluoromethyl)sulfonyl)-2-fluorophenyl)ethyl)amino)-6-(1-(fluoromethyl)cyclopropyl)-2-methylpyrido[4,3-d]pyrimidin-7(6H)-one] yielded an IC50 on KRAS G12C-SOS1 of 10 nM. Moreover, the fraction unbound at 5 h, 1 µM in [1] turned out to be 0.077; in series [2], 0.114.
At KRAS G12C-SOS1, `Cc1nc(N[C@H](C)c2cccc(S(F)(F)(F)(F)F)c2)c2cn(C3(C(F)F)CC3)c(=O)cc2n1` [Compound I-23, (R)-6-(1-(difluoromethyl)cyclopropyl)-2-methyl-4-((1-(3-(pentafluorosulfanyl)phenyl)ethyl)amino)pyrido[4,3-d]pyrimidin-7(6H)-one] gave an IC50 of 4.9 nM. In [3], the IC50 is 159 nM. Also, in the series on H358 cells, the IC50 came out at 12 nM. In addition, in series [4], the AUC(0-t) amounted to 44100 ng·h/mL, the Cmax stood at 4240 ng/mL, the Tmax worked out at 2 h and the half-life was 2.33 h. Moreover, in [5] (Mia Paca-2, 25 mg/kg BID), the “Average tumor weight at the end of the treatment” value (“Average tumor weight at the end” below) was found to be 0.45 g and the “Tumor weight inhibition rate (relative to the vehicle group)” value amounted to 61%. Besides, in [5] (Mia Paca-2, 50 mg/kg BID), the “Average tumor weight at the end” value came to 0.38 g and the “Tumor weight inhibition rate (relative to the vehicle group)” value came out at 67%. Also, in the series on LOVO colorectal cancer, the “Average tumor weight at the end” value was found to be 0.65 g and the “Tumor weight inhibition rate (relative to the vehicle group)” value was 53%.
In series [6], `Cc1nc(N[C@H](C)c2cccc(C(F)(F)F)c2C)c2cn(C3(CF)CC3)c(=O)cc2n1` [Control compound I, reference compound] showed a half-life at 1 µM of 1.07 h. In addition, in [1], the fraction unbound at 5 h, 1 µM came out at 0.009. Also, the fraction unbound at 5 h, 1 µM in series [2] was found to be 0.005. For the same compound, in series [4], the AUC(0-t) worked out at 365 ng·h/mL, the Cmax was determined as 176 ng/mL, the Tmax stood at 0.25 h and the half-life was 1.35 h.
